In ChEMBL document CHEMBL6109049, “Fine-tuning probes for fluorescence polarization binding assays of bivalent ligands against polo-like kinase 1 using full-length protein” (Bioorg Med Chem, 2025):
Where a SMILES comes first, the peptide text is derived from it. [ ]: non-standard residue; d: D form. The star is where a group is joined. BI2536acyl = CC[C@@H]1C(=O)N(C)c2cnc(Nc3ccc(C(=O)*)cc3OC)nc2N1C1CCCC1; His(π-(CH2)8Ph) = N[C@@H](Cc1cncn1CCCCCCCCc1ccccc1)C(=O)O; pT = C[C@@H](OP(=O)(O)O)[C@H](N)C(=O)O; AEEA = NCCOCCOCC(=O)O

How the values were obtained:
[1] = biological target: T1, Serine/threonine-protein kinase PLK1 (Homo sapiens, UniProt P53350); assay: Displacement of biotin-Ahx-PMQSpTPLN from myc-tagged Plk1 in cytosolic lysates (unknown origin) preincubated for 1 hr followed by biotinylated probe addition and measured after 1 hr by ELISA; type: subcellular, Cytosol
T1 sequence (P53350 whole entry): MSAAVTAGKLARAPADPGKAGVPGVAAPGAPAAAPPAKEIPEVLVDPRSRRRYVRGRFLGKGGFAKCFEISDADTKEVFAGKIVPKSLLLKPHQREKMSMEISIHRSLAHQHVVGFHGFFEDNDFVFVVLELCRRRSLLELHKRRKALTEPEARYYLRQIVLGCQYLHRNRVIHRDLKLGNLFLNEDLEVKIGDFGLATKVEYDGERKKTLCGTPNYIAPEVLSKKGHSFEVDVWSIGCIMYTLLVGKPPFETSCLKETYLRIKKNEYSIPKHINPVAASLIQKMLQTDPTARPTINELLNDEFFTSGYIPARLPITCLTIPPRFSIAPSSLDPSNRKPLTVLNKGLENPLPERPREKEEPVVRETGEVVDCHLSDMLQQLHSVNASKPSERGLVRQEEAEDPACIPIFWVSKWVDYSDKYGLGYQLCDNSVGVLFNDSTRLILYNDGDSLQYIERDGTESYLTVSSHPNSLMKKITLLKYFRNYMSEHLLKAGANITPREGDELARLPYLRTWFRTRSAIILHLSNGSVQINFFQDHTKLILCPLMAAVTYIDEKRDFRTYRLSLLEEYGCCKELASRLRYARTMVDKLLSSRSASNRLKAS

[2] = biological target: T1, Serine/threonine-protein kinase PLK1; assay: Displacement of FITC-miniPEG-FDPPLHSpTA from full length Plk1 (unknown origin) preincubated for 30 mins followed by fluorescent probe addition and measured after 30 mins by fluorescence polarization assay

SMILES | IC50 [1] | IC50 [2]
CC[C@@H]1C(=O)N(C)c2cnc(Nc3ccc(C(=O)NCCCC[C@H](NC(=O)COCCOCCNC(=O)COCCOCCNC(=O)COCCOCCNC(=O)COCCOCCNC(=O)[C@@H](NC(=O)[C@H](CO)NC(=O)[C@H](Cc4cncn4CCCCCCCCc4ccccc4)NC(=O)[C@H](CC(C)C)NC(=O)[C@@H]4CCCN4C(C)=O)[C@@H](C)O)C(N)=O)cc3OC)nc2N1C1CCCC1 (Ac-PL[His(π-(CH2)8Ph)]ST[AEEA][AEEA][AEEA][AEEA]K(BI2536acyl)-NH2) | Not_active | Not_active
CC[C@@H]1C(=O)N(C)c2cnc(Nc3ccc(C(=O)NCCCC[C@H](NC(C)=O)C(=O)NCCOCCOCC(=O)NCCOCCOCC(=O)NCCOCCOCC(=O)NCCOCCOCC(=O)N4CCC[C@H]4C(=O)N[C@@H](CC(C)C)C(=O)N[C@@H](Cc4c[nH]cn4)C(=O)N[C@@H](CO)C(=O)N[C@H](C(N)=O)[C@@H](C)O)cc3OC)nc2N1C1CCCC1 (Ac-K(BI2536acyl)[AEEA][AEEA][AEEA][AEEA]PLHST-NH2) | Not_active | Not_active
CC[C@@H]1C(=O)N(C)c2cnc(Nc3ccc(C(=O)NCCCC[C@H](NC(C)=O)C(=O)NCCOCCOCC(=O)NCCOCCOCC(=O)NCCOCCOCC(=O)NCCOCCOCC(=O)N4CCC[C@H]4C(=O)N[C@@H](CC(C)C)C(=O)N[C@@H](Cc4cncn4CCCCCCCCc4ccccc4)C(=O)N[C@@H](CO)C(=O)N[C@H](C(N)=O)[C@@H](C)O)cc3OC)nc2N1C1CCCC1 (Ac-K(BI2536acyl)[AEEA][AEEA][AEEA][AEEA]PL[His(π-(CH2)8Ph)]ST-NH2) | Not_active | Not_active

Other lines, results leading:

IC50 [1] | IC50 [2] | SMILES
Not_active | Not_active | CC[C@@H]1C(=O)N(C)c2cnc(Nc3ccc(C(=O)NCCCC[C@H](NC(=O)COCCOCCNC(=O)COCCOCCNC(=O)COCCOCCNC(=O)COCCOCCNC(=O)[C@@H](NC(=O)[C@H](CO)NC(=O)[C@H](Cc4c[nH]cn4)NC(=O)[C@H](CC(C)C)NC(=O)[C@@H]4CCCN4C(C)=O)[C@@H](C)O)C(N)=O)cc3OC)nc2N1C1CCCC1 (Ac-PLHST[AEEA][AEEA][AEEA][AEEA]K(BI2536acyl)-NH2)
Not_active |  | CC[C@@H]1C(=O)N(C)c2cnc(Nc3ccc(C(=O)NCCCC[C@H](NC(=O)COCCOCCNC(=O)[C@@H](NC(=O)[C@H](CO)NC(=O)[C@H](Cc4cncn4CCCCCCCCc4ccccc4)NC(C)=O)[C@@H](C)OP(=O)(O)O)C(N)=O)cc3OC)nc2N1C1CCCC1 (Ac-[His(π-(CH2)8Ph)]S[pT][AEEA]K(BI2536acyl)-NH2)
Not_active |  | CC[C@@H]1C(=O)N(C)c2cnc(Nc3ccc(C(=O)NCCCC[C@H](NC(C)=O)C(=O)NCCOCCOCC(=O)N[C@@H](Cc4cncn4CCCCCCCCc4ccccc4)C(=O)N[C@@H](CO)C(=O)N[C@H](C(N)=O)[C@@H](C)OP(=O)(O)O)cc3OC)nc2N1C1CCCC1 (Ac-K(BI2536acyl)[AEEA][His(π-(CH2)8Ph)]S[pT]-NH2)
